Data published in patent US20220257595A1, “MACITENTAN FOR USE IN TREATING PORTOPULMONARY HYPERTENSION” (ACTELION PHARMACEUTICALS LTD, priority 2019, published 2022).
Several values for one entry are separate records, joined by “and”; a condition that tells them apart may be missing. Equal entries are not always repeated.

Tested on: patients with PoPH
Test: PORTICO safety: treatment-emergent AEs, SAEs, AESIs, deaths, discontinuations
Type: in vivo
From the text: For the evaluation of treatment-emergent safety endpoints in the DB phase, the observation period for each individual subject started at the time of the first administration of macitentan or placebo and ended with the start of OL treatment or 30 days after DB treatment discontinuation (whichever occurred first). The safety variables listed below apply to the DB treatment-emergent period and the macitentan treatment-emergent period. The DB treatment-emergent period was defined as the period from the DB treatment start date up to the EOT-DB+30 days or to the EOT-DB for patients entering OL. The macitentan treatment-emergent period was defined as the period from the first intake of macitentan up to end of macitentan treatment (EOMT)+30 days. EOMT was defined as EOT-DB (for patient who received macitentan only in the DB period) or EOT-OL when applicable. For patients entering OLE, the EOMT is EOT-OL. • Treatment-emergent AEs • Treatment-emergent deaths • Treatment-emergent serious adverse events (SAEs) • AEs leading to premature discontinuation of study treatment • Occurrence of post-baseline LFT (ALT and/or AST) abnormalities, classified as: • ≥3×ULN; • ≥5×ULN; • ≥8×ULN; • ≥3×ULN and <5×ULN; • […] and <8×ULN. • Occurrence of post-baseline ALT and/or AST abnormality 3×ULN and concomitant (i.e., at the same time) total bilirubin ≥2×ULN • Occurrence of post-baseline ALT and/or AST abnormality ≥3×ULN and concomitant (i.e., at the same time) total bilirubin ≥2×ULN and increased as compared to baseline • Occurrence of hemoglobin abnormalities, classified as: • ≤80 g/L, • >80 and ≤100 g/L, • decrease from baseline ≥20 g/L and <50 g/L, • decrease from baseline ≥50 g/L, • <100 g/L and concurrent (i.e., at the same time) decrease from baseline ≥20 g/L. • Other treatment-emergent marked laboratory abnormalities • Change from baseline/macitentan baseline to EOT-DB/EOMT in vital signs • Change from baseline/macitentan baseline to EOT-DB/EOMT in laboratory variables • Change from baseline/macitentan baseline to EOT-DB/EOMT in Child-Pugh classification • Change from baseline/macitentan baseline to EOT-DB/EOMT in MELD score
(i) Adverse events: All AEs occurring after study start (i.e., signing of informed consent) and up to 30 days after study treatment discontinuation were required to be recorded. AEs still ongoing more than 30 days after study treatment discontinuation were required to be followed up until they were no longer considered clinically relevant.
(ii) Serious adverse events, including associated with study design or protocol-mandated procedures: During the screening period, all SAEs occurring after study start (i.e., signing of informed consent) were required to be recorded (whether considered associated or not associated to study design or study-mandated procedures). All SAEs, regardless of investigator-attributed causal relationship, occurring during the treatment period up to the end of the 30-day follow up period, were required to be reported. SAEs still ongoing at the EOS visit were required to be followed up until resolution or stabilization, or until the event outcome was provided, e.g., death. New SAEs occurring after the 30-day follow-up period were required to be reported within 24 hours.
In addition, the following adverse events of special interest (AESIs) were analyzed: • “Edema and fluid retention”
Any treatment-emergent AE with PT listed in the Standardised MedDRA Query (SMQ) “Haemodynamic oedema, effusions and fluid overload (SMQ)” or with PT equal to “Pulmonary congestion” defined in the latest available MedDRA version, with the exception of PTs containing “site”. • “Anemia”

[1] = macitentan DB + OL phase, Macitentan treated set, N = 84
[2] = macitentan DB+OL phase, MTS N=84

## CCCNS(=O)(=O)Nc1ncnc(OCCOc2ncc(Br)cn2)c1-c1ccc(Br)cc1 [macitentan, N-[5-(4-Bromophenyl)-6-[2-[(5-bromo-2-pyrimidinyl)oxy]ethoxy]-4-pyrimidinyl]-N′-propylsulfamide]
[1]
  AEs of special interest Hepatic disorders, Blood bilirubin increased: 1 (1.2) n (%)
  AEs of special interest Hepatic disorders, Hepatocellular carcinoma: 1 (1.2) n (%)
  AEs of special interest Hepatic disorders, Jaundice: 1 (1.2) n (%)
  AEs of special interest Hepatic disorders, Liver function test abnormal: 1 (1.2) n (%)
  AEs of special interest Hepatic disorders, Liver function test increased: 1 (1.2) n (%)
  AEs of special interest Hepatic disorders, Portal hypertensive gastropathy: 1 (1.2) n (%)
  AEs of special interest Hepatic disorders, Portopulmonary hypertension: 1 (1.2) n (%)
  AEs of special interest Hepatic disorders, Subjects with atleast one AE: 13 (15.5) n (%)
  AEs of special interest Hepatic disorders, Total bile acids increased: 2 (2.4) n (%)
  AEs of special interest Hepatic disorders, Varices oesophageal: 1 (1.2) n (%)
  Subjects with at least one AE: 74 (88.1) n (%)
  Subjects with at least one SAE: 25 (29.8) n(%)
  Treatment-emergent AE, Abdominal pain: 4 (4.8) n (%)
  Treatment-emergent AE, Acute kidney injury: 3 (3.6) n (%)
  Treatment-emergent AE, Anaemia: 12 (14.3) n (%)
  Treatment-emergent AE, Arthralgia: 3 (3.6) n (%)
  Treatment-emergent AE, Ascites: 4 (4.8) n (%)
  Treatment-emergent AE, Asthenia: 4 (4.8) n (%)
  Treatment-emergent AE, Bronchitis: 8 (9.5) n (%)
  Treatment-emergent AE, Dizziness: 7 (8.3) n (%)
  Treatment-emergent AE, Dyspnoea: 4 (4.8) n (%)
  Treatment-emergent AE, Dyspnoea exertional: 3 (3.6) n (%)
  Treatment-emergent AE, Fall: 3 (3.6) n (%)
  Treatment-emergent AE, Haemoglobin decreased: 6 (7.1) n (%)
  Treatment-emergent AE, Headache: 16 (19.0) n (%)
  Treatment-emergent AE, Hepatic encephalopathy: 4 (4.8) n (%)
  Treatment-emergent AE, Hypokalaemia: 3 (3.6) n (%)
  Treatment-emergent AE, Hypotension: 4 (4.8) n (%)
  Treatment-emergent AE, Influenza like illness: 3 (3.6) n (%)
  Treatment-emergent AE, Iron deficiency anaemia: 3 (3.6) n (%)
  Treatment-emergent AE, Muscle spasms: 3 (3.6) n (%)
  Treatment-emergent AE, Nausea: 4 (4.8) n (%)
  Treatment-emergent AE, Oedema peripheral: 23 (27.4) n (%)
  Treatment-emergent AE, Pain in extremity: 7 (8.3) n (%)
  Treatment-emergent AE, Pruritus: 3 (3.6) n (%)
  Treatment-emergent AE, Pulmonary arterial hypertension: 3 (3.6) n (%)
  Treatment-emergent AE, Rash: 3 (3.6) n (%)
  Treatment-emergent AE, Rhinitis: 5 (6.0) n (%)
  Treatment-emergent AE, Right ventricular failure: 6 (7.1) n (%)
  Treatment-emergent AE, Urinary tract infection: 3 (3.6) n (%)
  Treatment-emergent AE, Viral upper respiratory tract infection: 4 (4.8) n (%)
  Treatment-emergent AE, Vomiting: 3 (3.6) n (%)
  Treatment-emergent SAE, Abdominal pain: 1 (1.2) n(%)
  Treatment-emergent SAE, Acute kidney injury: 2 (2.4) n(%)
  Treatment-emergent SAE, Alveolitis: 1 (1.2) n(%)
  Treatment-emergent SAE, Anaemia: 2 (2.4) n(%)
  Treatment-emergent SAE, Ascites: 2 (2.4) n(%)
  Treatment-emergent SAE, Asthma: 1 (1.2) n(%)
  Treatment-emergent SAE, Atrial fibrillation: 1 (1.2) n(%)
  Treatment-emergent SAE, Bronchitis: 1 (1.2) n(%)
  Treatment-emergent SAE, Chronic kidney disease: 1 (1.2) n(%)
  Treatment-emergent SAE, Fall: 1 (1.2) n(%)
  Treatment-emergent SAE, Fluid overload: 1 (1.2) n(%)
  Treatment-emergent SAE, Gastrointestinal haemorrhage: 1 (1.2) n(%)
  Treatment-emergent SAE, Haemoptysis: 1 (1.2) n(%)
  Treatment-emergent SAE, Hepatic encephalopathy: 3 (3.6) n(%)
  Treatment-emergent SAE, Hepatocellular carcinoma: 1 (1.2) n(%)
  Treatment-emergent SAE, Humerus fracture: 1 (1.2) n(%)
  Treatment-emergent SAE, Hypersensitivity: 1 (1.2) n(%)
  Treatment-emergent SAE, Ileus: 1 (1.2) n(%)
  Treatment-emergent SAE, Intervertebral disc protrusion: 1 (1.2) n(%)
  Treatment-emergent SAE, Iron deficiency anaemia: 1 (1.2) n(%)
  Treatment-emergent SAE, Left ventricular failure: 1 (1.2) n(%)
  Treatment-emergent SAE, Liver function test increased: 1 (1.2) n(%)
  Treatment-emergent SAE, Localised oedema: 1 (1.2) n(%)
  Treatment-emergent SAE, Lung infection: 1 (1.2) n(%)
  Treatment-emergent SAE, Malignant ascites: 1 (1.2) n(%)
  Treatment-emergent SAE, Melaena: 2 (2.4) n(%)
  Treatment-emergent SAE, Oedema peripheral: 2 (2.4) n(%)
  Treatment-emergent SAE, Osteitis: 1 (1.2) n(%)
  Treatment-emergent SAE, Pneumonia: 1 (1.2) n(%)
  Treatment-emergent SAE, Presyncope: 1 (1.2) n(%)
  Treatment-emergent SAE, Priapism: 1 (1.2) n(%)
  Treatment-emergent SAE, Pulmonary arterial hypertension: 2 (2.4) n(%)
  Treatment-emergent SAE, Pulmonary toxicity: 1 (1.2) n(%)
  Treatment-emergent SAE, Right ventricular failure: 4 (4.8) n(%)
  Treatment-emergent SAE, Staphylococcal infection: 1 (1.2) n(%)
  Treatment-emergent SAE, Subdural haematoma: 1 (1.2) n(%)
  Treatment-emergent SAE, Syncope: 1 (1.2) n(%)
  Treatment-emergent SAE, Thrombocytopenia: 1 (1.2) n(%)
  Treatment-emergent SAE, Tinnitus: 1 (1.2) n(%)
  Treatment-emergent SAE, Troponin I increased: 1 (1.2) n(%)
  Treatment-emergent SAE, Urosepsis: 1 (1.2) n(%)
Macitentan DB+OL phase
  Anemia AEs reported as SAEs: 2 and 3
  Patients who discontinued treatment due to AEs: 10 patients
  Patients who had an SAE: 29.8%
  Patients with edema and fluid retention AEs reported as serious: 2 patients
  Patients with hepatic disorder AEs reported as SAEs: 5 patients
  Peripheral edema leading to discontinuation of treatment: 2 patients
Macitentan DB+OL phase (13 patients)
  Patients with hepatic disorder AEs: 15.5%
Macitentan DB+OL phase (22 patients)
  Patients with anemia AEs: 26.2%
Macitentan DB+OL phase (26 patients)
  Patients with edema and fluid retention AEs: 31.0%
Macitentan DB+OL phase, 3 patients
  Decreased hemoglobin considered related to study treatment: 3.6%
Macitentan DB+OL phase, 3 patients each
  Most frequent severe AEs (peripheral edema, right ventricular failure, acute kidney injury), each: 3.6%
Macitentan DB+OL phase, 4 patients
  Anemia considered related to study treatment: 4.8%
Macitentan DB+OL phase, 10 patients
  Peripheral edema considered related to study treatment: 11.9%
Macitentan DB+OL phase, 11 patients
  Headache considered related to study treatment: 13.1%
Macitentan DB+OL phase, 19 patients
  Patients with AEs of severe intensity: 22.6%
[2]
  Subjects with AE leading to study drug discontinuation: 10 (11.9) n (%)
  Subjects with Drug-Related AE: 33 (39.3) n (%)
  Subjects with Drug-Related serious AE: 8 (9.5) n (%)
  Subjects with Fatal serious AE: 4 (4.8) n (%)
  Subjects with Serious AE: 25 (29.8) n (%)
  Subjects with Severe AE: 19 (22.6) n (%)
Macitentan DB+OL phase, Macitentan treated set N=84
  Subjects with at least one AE: 74 (88.1) n (%)
Patients with PoPH and mild or moderate liver impairment
  Overall safety and tolerability: good safety profile and is well tolerated
